Assay results from PubChem BioAssay AID651833 (Broad Institute, 2012).
Several values for one entry are separate records, joined by “and”; a condition that tells them apart may be missing. Equal entries are not always repeated. Activity calls are given as the source filed them.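 The calls were made as follows: active = fitted curve reaching 40% activation at or below the sample's highest valid tested dose; inconclusive = flat fit between 30% and 70%, or poor fit; inactive = the rest, including opposite-direction activity.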

molecular target: Kelch-like ECH-associated protein 1 (Homo sapiens) + Nuclear factor erythroid 2-related factor 2 (Homo sapiens) (UniProt Q14145+Q16236); assay: cellular Nrf2 nuclear translocation induction – PathHunter, U2OS cells, dry powder, orthogonal assay for Keap1-Nrf2 interaction inhibitor project, dose response (AID 651833); details: beta-gal luminescence, 3 h
Sequence (Q14145 whole entry, looked up): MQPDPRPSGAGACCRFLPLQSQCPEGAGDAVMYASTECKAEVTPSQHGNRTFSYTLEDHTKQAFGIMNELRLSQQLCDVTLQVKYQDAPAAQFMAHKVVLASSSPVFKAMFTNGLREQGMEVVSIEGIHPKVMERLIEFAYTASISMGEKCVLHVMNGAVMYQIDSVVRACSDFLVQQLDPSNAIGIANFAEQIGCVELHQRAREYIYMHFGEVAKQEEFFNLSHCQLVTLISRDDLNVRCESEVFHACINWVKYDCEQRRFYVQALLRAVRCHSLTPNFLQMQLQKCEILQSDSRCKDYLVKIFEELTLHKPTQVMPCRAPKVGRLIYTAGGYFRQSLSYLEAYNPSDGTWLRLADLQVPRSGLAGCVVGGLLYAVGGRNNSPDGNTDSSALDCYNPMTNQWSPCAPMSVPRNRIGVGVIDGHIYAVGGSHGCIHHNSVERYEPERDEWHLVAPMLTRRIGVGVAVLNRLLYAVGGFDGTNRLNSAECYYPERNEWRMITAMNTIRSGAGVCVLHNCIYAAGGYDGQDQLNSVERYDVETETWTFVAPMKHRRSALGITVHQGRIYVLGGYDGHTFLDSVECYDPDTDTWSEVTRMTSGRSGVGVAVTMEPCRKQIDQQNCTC
Sequence (Q16236 whole entry, looked up): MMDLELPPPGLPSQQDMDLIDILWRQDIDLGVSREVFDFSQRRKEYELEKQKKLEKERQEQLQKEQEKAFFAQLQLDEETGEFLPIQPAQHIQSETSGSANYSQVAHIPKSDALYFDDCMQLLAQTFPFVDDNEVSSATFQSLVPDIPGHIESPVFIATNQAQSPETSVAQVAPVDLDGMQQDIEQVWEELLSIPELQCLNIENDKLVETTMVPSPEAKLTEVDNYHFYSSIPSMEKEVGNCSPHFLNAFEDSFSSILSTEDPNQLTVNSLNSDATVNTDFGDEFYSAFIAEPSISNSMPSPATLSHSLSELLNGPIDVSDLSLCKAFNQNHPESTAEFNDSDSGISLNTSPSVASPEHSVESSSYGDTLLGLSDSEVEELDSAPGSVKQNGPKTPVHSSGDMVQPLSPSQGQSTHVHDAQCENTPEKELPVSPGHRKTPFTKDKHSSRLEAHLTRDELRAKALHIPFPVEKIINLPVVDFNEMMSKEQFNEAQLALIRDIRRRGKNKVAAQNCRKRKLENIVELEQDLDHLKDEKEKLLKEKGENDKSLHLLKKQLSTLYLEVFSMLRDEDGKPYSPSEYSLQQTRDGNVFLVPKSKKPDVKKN

Compound | AC40
Cc1ccc(S(=O)(=O)Nc2cc(C(C(=O)OC(C)C)C(=O)C(F)(F)F)c(O)c3ccccc23)c(C)c1 (configuration not stated) | 5.12 µM
Cc1ccccc1S(=O)(=O)Nc1cc(C(C(=O)OC(C)C)C(=O)C(F)(F)F)c(O)c2ccccc12 (configuration not stated) | 6.97 µM
O=C(Oc1cc(CN2C(=O)c3ccccc3C2=O)c2ccccc2[n+]1[O-])c1cccc(Cl)c1 | 30 µM
COC(=O)C(C(=O)OC)c1cc(NS(=O)(=O)c2c(C)cc(C)cc2C)c2ccccc2c1O | 4.21 µM
Cc1ccc(S(=O)(=O)NC2=CC(=N[C@@H](C)C(=O)OC(C)(C)C)C(=O)c3ccccc32)c(C)c1 | > 38 µM (inactive)
Cc1ccc(S(=O)(=O)Nc2cc(C(C(=O)OC(C)C)C(=O)C(F)(F)F)c(O)c3ccccc23)cc1 (configuration not stated) | 12.1 µM
Cc1cc(C)c(S(=O)(=O)Nc2nc(C(C(=O)OC(C)C)C(=O)C(F)(F)F)nc3ccccc23)c(C)c1 (configuration not stated) | > 38 µM (inactive)
CC(=O)Nc1cc(NS(=O)(=O)c2c(C)cc(C)cc2C)c2ccccc2c1O | 27.2 µM
Cc1ccc(S(=O)(=O)NNc2nc(N3CC(O)CC3C(=O)O)nc3ccccc23)cc1 (configuration not stated) | > 38 µM (inactive)

Further lines, results first:

AC40 | Compound
18.5 µM | Cc1ccc(S(=O)(=O)NNc2nc(C(C(=O)OC(C)C)C(=O)C(F)(F)F)nc3ccccc23)cc1 (configuration not stated)
> 38 µM (inactive) | O=C(NC[C@@H]1c2ccccc2CCN1C(=O)[C@@H]1CCCC[C@@H]1C(=O)O)c1ccc(CCl)cc1
> 38 µM (inactive) | O=C(O)C1CCCCC1C(=O)N1CCc2ccccc2C1CN1Cc2ccccc2C1=O (configuration not stated)
> 38 µM (inactive) | O=C(NC[C@@H]1c2ccccc2CCN1C(=O)[C@@H]1CCCC[C@@H]1C(=O)O)c1ccccc1
1.1 µM | Cc1cc(C)c(S(=O)(=O)Nc2cc(C(C(=O)OC(C)C)C(=O)C(F)(F)F)c(O)c3ccccc23)c(C)c1 (configuration not stated)
> 38 µM (inactive) | O=C(NC[C@@H]1c2ccccc2CCN1C(=O)[C@@H]1CCCC[C@@H]1C(=O)O)OCC1c2ccccc2-c2ccccc21
> 38 µM (inactive) | O=C(O)Cc1ccccc1C(=O)N1CCc2ccccc2[C@H]1CN1C(=O)c2ccccc2C1=O
20 µM | CC(C)OC(=O)C(C(=O)C(F)(F)F)c1cc(NS(=O)(=O)c2ccccc2)c2ccccc2c1O (configuration not stated)
> 38 µM (inactive) | O=C(O)[C@H]1C2C=CC(C2)[C@H]1C(=O)N1CCc2ccccc2C1CN1C(=O)c2ccccc2C1=O (some centres not stated)

same assay, conditions: beta-gal luminescence, 3 h, at 10 µM (top of the series)

Compound | activation
O=C1c2ccccc2C(=O)N1CC1c2ccccc2CCN1C(=O)Cc1ccccc1 (configuration not stated) | -2.75% (inactive)

same assay, conditions: beta-gal luminescence, 3 h, at 38 µM (top of the series)

Compound | activation
O=C(NCCc1ccccc1)c1ccccc1C(=O)NC[C@@H]1c2ccccc2CCN1C(=O)C1CCCCC1C(=O)O (some centres not stated) | 5.09% (inactive)
COc1ccccc1CCNC(=O)[C@@H]1c2ccccc2CCN1C(=O)C1CCCCC1C(=O)O (some centres not stated) | -2.36% (inactive) and -1.69% (inactive)
Cc1ccc(S(=O)(=O)NNc2nc(NCC(N)=O)nc3ccccc23)cc1 | 3% (inactive)
O=C(O)C1CCCCC1C(=O)Nc1ccccc1CN1C(=O)c2ccccc2C1=O (configuration not stated) | -2.72% (inactive)
Cc1cc(C)c(S(=O)(=O)Nc2nc(NCCO)nc3ccccc23)c(C)c1 | 3.36% (inactive)
O=C(O)[C@H]1CCCC[C@H]1C(=O)N1CCc2ccccc2[C@H]1CNS(=O)(=O)c1ccc([N+](=O)[O-])cc1 | 6.37% (inactive)
CCOC(=O)Cc1nc(NS(=O)(=O)c2c(C)cc(C)cc2C)c2ccccc2n1 | 8.62% (inactive)
O=C(O)C1CCCCC1C(=O)N1CCCCC1CN1C(=O)c2ccccc2C1=O (configuration not stated) | -1.78% (inactive)
O=C(O)C1CCCCC1C(=O)NCC1c2ccccc2CCN1C(=O)Cc1ccccc1 (configuration not stated) | 0.036% (inactive)
CCOC(=O)C(C(=O)OCC)c1cc(CN2C(=O)c3ccccc3C2=O)c2ccccc2n1 | 9.41% (inactive)
O=C(O)[C@H]1CCCC[C@H]1C(=O)NC(CN1C(=O)c2ccccc2C1=O)c1ccccc1 (some centres not stated) | -1.98% (inactive)
O=C(O)[C@H]1CCCC[C@H]1C(=O)N1CCC2=C(CCCC2)C1CN1C(=O)c2ccccc2C1=O (some centres not stated) | 11% (inactive) and -0.217% (inactive)
COC(=O)[C@@H]1CCCC[C@@H]1C(=O)N1CCc2ccccc2[C@H]1CN1C(=O)c2ccccc2C1=O | -2.72% (inactive)
Cc1cc(C)c(S(=O)(=O)Nc2ncnc3ccccc23)c(C)c1 | 2.9% (inactive)
C=CC(=O)NC[C@@H]1c2ccccc2CCN1C(=O)[C@@H]1CCCC[C@@H]1C(=O)O | 6.96% (inactive)
O=C(NCCCN1CCOCC1)c1ccccc1C(=O)NC[C@@H]1c2ccccc2CCN1C(=O)C1CCCCC1C(=O)O (some centres not stated) | 4.62% (inactive)
O=C(O)C1CCCCC1C(=O)N1CCc2ccccc2C1CN1C(=O)[C@H]2CCCC[C@H]2C1=O (some centres not stated) | 4.38% (inactive)
O=C(O)[C@H]1CCCC[C@H]1C(=O)N1CCc2ccccc2[C@H]1CNc1nc(Cl)nc2ccccc12 | 5.4% (inactive)
COc1ccc(CCN=C2C=C(NS(=O)(=O)c3c(C)cc(C)cc3C)c3ccccc3C2=O)cc1 | 5.19% (inactive)

Compound | activation
O=C(O)C1CCCCC1C(=O)N1CCc2ccccc2[C@H]1C(=O)NC12CC3CC(CC(C3)C1)C2 (some centres not stated) | -2.47% (inactive)
O=C(O)CCC(=O)N1CCc2ccccc2C1CN1C(=O)c2ccccc2C1=O (configuration not stated) | 1.36% (inactive)
O=C(O)c1ccccc1C(=O)NC[C@@H]1c2ccccc2CCN1C(=O)[C@@H]1CCCC[C@@H]1C(=O)O | 0.179% (inactive)
O=C(O)C1CCCCC1C(=O)N1CCc2ccccc2C1CN1C(=O)c2ccccc2S1(=O)=O (configuration not stated) | 13.7% (inactive)
CCOC(=O)C(C(=O)OCC)c1cc(CNS(=O)(=O)c2ccc(C)cc2C)c2ccccc2n1 | 1.4% (inactive)
COC(=O)[C@H]1CCCC[C@H]1C(=O)N1CCc2ccccc2[C@H]1CN1C(=O)c2ccccc2C1=O | -2.1% (inactive)
O=C(O)c1ccccc1C(=O)N1CCc2ccccc2C1CN1C(=O)c2ccccc2C1=O (configuration not stated) | 4.54% (inactive)
Cc1cc(C)c(S(=O)(=O)Nc2cc(C(C(=O)OCc3ccccc3)C(=O)OCc3ccccc3)c(O)c3ccccc23)c(C)c1 | 5.34% (inactive)
O=C(O)CCCC(=O)N1CCc2ccccc2C1CN1C(=O)c2ccccc2C1=O (configuration not stated) | 3.41% (inactive)
CC(C)CNc1nc(NS(=O)(=O)c2ccccc2)c2ccccc2n1 | 7.06% (inactive)
NC(=O)c1ccccc1C(=O)NC[C@@H]1c2ccccc2CCN1C(=O)[C@@H]1CCCC[C@@H]1C(=O)O | 8.88% (inactive)
NC(=O)[C@H]1CCCC[C@H]1C(=O)N1CCc2ccccc2[C@H]1CN1C(=O)c2ccccc2C1=O | 4.54% (inactive)
O=C(O)[C@@H]1CCCN1C(=O)N1CCc2ccccc2[C@H]1CN1C(=O)c2ccccc2C1=O | 5.41% (inactive)
O=C(O)C1CCCCC1C(=O)N1CCc2ccccc2C1CN1C(=O)Cc2ccccc2C1=O (configuration not stated) | 8.47% (inactive)
O=C(O)/C=C\C(=O)N1CCc2ccccc2C1CN1C(=O)c2ccccc2C1=O (configuration not stated) | 13% (inactive)
CCOC(=O)C(C(=O)OCC)c1nc(NS(=O)(=O)c2c(C)cc(C)cc2C)c2ccccc2n1 | 1.28% (inactive)
O=C1c2ccccc2C(=O)N1C[C@@H]1c2ccccc2CCN1C(=O)C1CCCCC1 | 0.733% (inactive)
COC(=O)[C@@H]1CCCC[C@@H]1C(=O)N1CCc2ccccc2[C@@H]1CN1C(=O)c2ccccc2C1=O | -2.15% (inactive)
O=C(O)[C@H]1CCCC[C@H]1C(=O)N1CCc2ccccc2C1 (racemic) | -0.662% (inactive)

Second part, the compound after the results:

activation | Compound
-1.8% (inactive) | C[C@@H](NC(=O)C1CCCC[C@H]1C(=O)O)c1ccccc1 (mixture of isomers)
6.26% (inactive) | O=C(Cc1ccccc1)NC[C@@H]1c2ccccc2CCN1C(=O)[C@@H]1CCCC[C@@H]1C(=O)O
3.66% (inactive) | COC(=O)CNc1nc(NS(=O)(=O)c2c(C)cc(C)cc2C)c2ccccc2n1
3.97% (inactive) | O=S(=O)(Nc1nc(NCC2CCCCC2)nc2ccccc12)c1ccccc1
2.86% (inactive) | O=C(NC[C@@H]1c2ccccc2CCN1C(=O)[C@@H]1CCCC[C@@H]1C(=O)O)c1ccc(CN2CCOCC2)cc1
2.02% (inactive) | Cc1cc(C)c(S(=O)(=O)Nc2nc(N(C)C)nc3ccccc23)c(C)c1
4.66% (inactive) | Cc1ccc(S(=O)(=O)NC[C@@H]2c3ccccc3CCN2C(=O)[C@@H]2CCCC[C@@H]2C(=O)O)c(C)c1
7.86% (inactive) | O=C(O)[C@H]1CCCC[C@H]1C(=O)N1CCc2ccccc2[C@H]1CNS(=O)(=O)c1ccccc1
-4.29% (inactive) | C[C@H](NC(=O)C1CCCC[C@H]1C(=O)O)c1ccccc1 (mixture of isomers)
1.27% (inactive) | COC(=O)C1CCCCC1C(=O)N1CCc2ccccc2C1CN1C(=O)c2ccccc2C1=O (configuration not stated)
4.09% (inactive) | O=C(NCCO)c1ccccc1C(=O)NC[C@@H]1c2ccccc2CCN1C(=O)C1CCCCC1C(=O)O (some centres not stated)
-2.53% (inactive) | O=C(O)C1CCCCC1C(=O)N1CCc2ccccc2C1c1ccccc1 (configuration not stated)
-2.67% (inactive) | O=C1c2ccccc2C(=O)N1C[C@H]1NCCc2ccccc21
0.812% (inactive) and -0.193% (inactive) | O=C(O)[C@H]1CCCC[C@H]1C(=O)N1CCc2ccccc2C1CCN1C(=O)c2ccccc2C1=O (some centres not stated)
1.45% (inactive) | O=C1c2ccccc2C(=O)N1C[C@@H]1c2ccccc2CCN1C(=O)OCc1ccccc1
2.2% (inactive) | O=C(NC[C@@H]1c2ccccc2CCN1C(=O)[C@@H]1CCCC[C@@H]1C(=O)O)c1ccccc1CO
-0.067% (inactive) | O=C1c2ccccc2C(=O)N1CC1=NCCc2ccccc21
6.05% (inactive) and 8.58% (inactive) | Cc1ccc(S(=O)(=O)NC(=O)[C@@H]2c3ccccc3CCN2C(=O)[C@@H]2CCCC[C@@H]2C(=O)O)cc1
2.73% (inactive) | O=C(O)CC(=O)N1CCc2ccccc2C1CN1C(=O)c2ccccc2C1=O (configuration not stated)
0.849% (inactive) | O=C(O)C1CCCCC1C(=O)N1CCc2ccccc2[C@H]1C(=O)NCCc1ccccc1 (some centres not stated)
